Data published in the supplement of paper PMC8671470.

What was measured:
Settings in all cases: 72 h
BV-173 = tested on: BV-173
In short: (§1)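 In 384-well plates holding acoustically pre-printed compounds at five tenfold doses from 1 to 10,000 nM, in duplicate, fifteen myeloid leukaemia cell lines were grown in RPMI 1640 for 72 h at 37 °C with 5% CO2. Luminescent ATP viability was scaled between vehicle and a positive control at 10 µM. The IC50 was then taken from log-logistic dose–response fits with four parameters.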

HEL [1] = tested on: HEL
In short: as §1

HL-60 [2] = tested on: HL-60
In short: as §1

K-562 [3] = tested on: K-562
In short: as §1

KCL-22 [4] = tested on: KCL-22
In short: as §1

KG-1 [5] = tested on: KG-1
In short: as §1

KU-812 [6] = tested on: KU-812
In short: as §1

LAMA-84 = tested on: LAMA-84
In short: as §1

ML-2 [7] = tested on: ML-2
In short: as §1

MOLM-13 [8] = tested on: MOLM-13
In short: as §1

MV4-11 [9] = tested on: MV4-11
In short: as §1

Mono-Mac-6 = tested on: Mono-Mac-6
In short: as §1

NOMO-1 [10] = tested on: NOMO-1
In short: as §1

SHI-1 [11] = tested on: SHI-1
In short: as §1

THP-1 [12] = tested on: THP-1
In short: as §1

HL-60 [13] = assay: cell viability (% survival relative to DMSO control); higher = less cytotoxic
In short: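 Four-parameter log-logistic fits in drc and PharmacoGx supplied area under the curve where it is given. Underlying viability came from CellTiter-Glo, normalised to DMSO and proteasome-inhibitor wells, with the proteasome inhibitor at 10 μM. HL-60 cells in RPMI 1640 plus 10% FBS had been rescreened against the full library at five tenfold concentrations of 1–10,000 nM, in duplicate on 384-well plates, with DMSO or 100 nM of one of three metabolic inhibitors, for 72 h at 37 °C, 5% CO2.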

HEL [14] = assay: cell viability (% survival relative to DMSO control, bortezomib = 0%); higher = less cytotoxic
In short: (§2)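 Fifteen myeloid leukaemia cell lines (10 AML, 5 CML) were seeded at a density titrated to the linear growth range into 384-well plates pre-printed with compounds at 1, 10, 100, 1000 or 10000 nM in duplicate. Plates were incubated for 72 h at 37 °C with 5% CO2. Viability was then read by CellTiter-Glo luminescence. Each value is percent survival averaged over the duplicates, with vehicle set to 100% and a 10 µM positive control to 0%.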

HL-60 [15] = assay: as above
In short: as §2

K-562 [16] = assay: as above
In short: as §2

KCL-22 [17] = assay: as above
In short: as §2

KG-1 [18] = assay: as above
In short: as §2

KU-812 [19] = assay: as above
In short: as §2

ML-2 [20] = assay: as above
In short: as §2

MOLM-13 [21] = assay: as above
In short: as §2

MV4-11 [22] = assay: as above
In short: as §2

NOMO-1 [23] = assay: as above
In short: as §2

SHI-1 [24] = assay: as above
In short: as §2

THP-1 [25] = assay: as above
In short: as §2

Cc1c(Cl)cccc1S(=O)(=O)Nc1nc(CC(=O)N2CCN(C)CC2)cs1 [BVT-2733]
Settings	IC50 (cell viability) [µM]
BV-173	> 10
HEL [1]	> 10
HL-60 [2]	> 10
K-562 [3]	> 10
KCL-22 [4]	> 10
KG-1 [5]	> 10
KU-812 [6]	> 10
LAMA-84	> 10
ML-2 [7]	> 10
MOLM-13 [8]	> 10
MV4-11 [9]	> 10
Mono-Mac-6	> 10
NOMO-1 [10]	> 10
SHI-1 [11]	> 10
THP-1 [12]	> 10

cell viability [%], HL-60 [13]
Settings	0.001 µM	0.01 µM	0.1 µM	1 µM	10 µM
co-treatment: AZD3965 100 nM	101.68	102	97.2	98.13	99.4
co-treatment: DMSO vehicle	101	103.3	98.9	98.1	98.8
co-treatment: GSK2194069 100 nM	103.6	105	97	88.4	99.66
co-treatment: pictilisib 100 nM	96.1	99.8	96.6	87.2	97.9

cell viability [%]
Settings	1 nM	10 nM	100 nM	1000 nM	10000 nM
HEL [14]	106	82.9	96.3	108	101
HL-60 [15]	99.9	93.4	78.9	122	93.5
K-562 [16]	98	83.5	87.1	104	102
KCL-22 [17]	114	83.6	97.9	98.2	98.1
KG-1 [18]	102	92.8	94.2	98.2	105
KU-812 [19]	107	95.4	96.6	95.9	86.4
ML-2 [20]	108	91.1	92.6	108	99.6
MOLM-13 [21]	99.7	89.1	97.8	110	96.4
MV4-11 [22]	107	95.1	88.3	108	112
NOMO-1 [23]	105	97.6	99.1	99.1	95.4
SHI-1 [24]	110	101	105	111	104
THP-1 [25]	107	91	100	97	92.9

CCc1oc2ccccc2c1C(=O)c1cc(Br)c(O)c(Br)c1 [Benzbromarone]
Settings	IC50 (cell viability) [µM]
BV-173	> 10
HEL [1]	> 10
HL-60 [2]	> 10
K-562 [3]	> 10
KCL-22 [4]	> 10
KG-1 [5]	> 10
KU-812 [6]	> 10
LAMA-84	> 10
ML-2 [7]	> 10
MOLM-13 [8]	> 10
MV4-11 [9]	> 10
Mono-Mac-6	> 10
NOMO-1 [10]	> 10
SHI-1 [11]	> 10
THP-1 [12]	> 10

cell viability [%], HL-60 [13]
Settings	0.001 µM	0.01 µM	0.1 µM	1 µM	10 µM
co-treatment: AZD3965 100 nM	98.7	99.3	98.9	102	99.81
co-treatment: DMSO vehicle	101	99	101	103	101.1
co-treatment: GSK2194069 100 nM	95.9	104	105	102.3	97.85
co-treatment: pictilisib 100 nM	93.8	99.8	97.7	118	98

cell viability [%]
Settings	1 nM	10 nM	100 nM	1000 nM	10000 nM
HEL [14]	92.3	101	101	89.8	122
HL-60 [15]	88.5	88.1	136	94.1	104
K-562 [16]	117	94.6	103	97.7	103
KCL-22 [17]	108	90.7	91.5	90.2	124
KG-1 [18]	95.7	97.7	102	94.1	102
KU-812 [19]	100	95.2	97.9	87.4	104
ML-2 [20]	99.6	96.6	109	93.4	109
MOLM-13 [21]	101	101	91.3	90.8	136
MV4-11 [22]	107	100	97	91.2	118
NOMO-1 [23]	95.1	103	94.8	93.9	109
SHI-1 [24]	104	86	104	103	117
THP-1 [25]	105	95.7	112	101	86.3

CCOC(=O)c1sc(NC(=O)c2ccco2)c(SC#N)c1C [CBR-5884]
Settings	IC50 (cell viability) [µM]
BV-173	> 10
HEL [1]	> 10
HL-60 [2]	> 10
K-562 [3]	> 10
KCL-22 [4]	> 10
KG-1 [5]	> 10
KU-812 [6]	> 10
LAMA-84	> 10
ML-2 [7]	> 10
MOLM-13 [8]	> 10
MV4-11 [9]	7.25
Mono-Mac-6	> 10
NOMO-1 [10]	> 10
SHI-1 [11]	> 10
THP-1 [12]	> 10

cell viability [%], HL-60 [13]
Settings	0.001 µM	0.01 µM	0.1 µM	1 µM	10 µM
co-treatment: AZD3965 100 nM	107.6	103	93.2	106	102
co-treatment: DMSO vehicle	104	102	98.9	105	100.8
co-treatment: GSK2194069 100 nM	97.6	98.31	90.6	98.2	103
co-treatment: pictilisib 100 nM	107	101	81.8	101	88

cell viability [%]
Settings	1 nM	10 nM	100 nM	1000 nM	10000 nM
HEL [14]	102	102	98.2	104	86.5
HL-60 [15]	103	102	89.5	92.7	59.4
K-562 [16]	89.9	105	92.7	88.9	83.7
KCL-22 [17]	110	85.5	107	105	94.6
KG-1 [18]	90.5	83.3	103	94.3	74.9
KU-812 [19]	93.5	101	109	94.8	88.3
ML-2 [20]	94.5	97.2	104	99.3	60.5
MOLM-13 [21]	97.2	82.9	112	97.3	81.4
MV4-11 [22]	79.9	96.3	116	88.3	51.1
NOMO-1 [23]	99.8	104	97.4	100	94.5
SHI-1 [24]	90.4	87.1	102	103	81.3
THP-1 [25]	102	97.1	98.1	94.4	100

O=C(/C=C/c1ccc(O)c(O)c1)OCCc1ccccc1 [Caffeic acid phenethyl ester]
Settings	IC50 (cell viability) [µM]
BV-173	0.664
HEL [1]	4.18
HL-60 [2]	1.07
K-562 [3]	> 10
KCL-22 [4]	2.21
KG-1 [5]	1.1
KU-812 [6]	0.649
LAMA-84	6.17
ML-2 [7]	1.26
MOLM-13 [8]	> 10
MV4-11 [9]	1.39
Mono-Mac-6	3.47
NOMO-1 [10]	> 10
SHI-1 [11]	> 10
THP-1 [12]	6.98

cell viability [%], HL-60 [13]
Settings	0.001 µM	0.01 µM	0.1 µM	1 µM	10 µM
co-treatment: AZD3965 100 nM	98.9	99.96	104	103	27.4
co-treatment: DMSO vehicle	76	95.8	98.75	98.83	33.3
co-treatment: GSK2194069 100 nM	93.3	100.7	102	97.1	33.1
co-treatment: pictilisib 100 nM	101	102	96.7	81.5	22.1

cell viability [%]
Settings	1 nM	10 nM	100 nM	1000 nM	10000 nM
HEL [14]	92.8	96.8	84.1	77.9	24.8
HL-60 [15]	96.3	111	92.2	56.7	16.2
K-562 [16]	90.1	94.8	97.8	95.2	48.5
KCL-22 [17]	87.2	108	93.3	71.9	35.8
KG-1 [18]	97.2	102	94.7	61	23.5
KU-812 [19]	96.1	93	93.2	33.2	7.74
ML-2 [20]	97.8	106	104	61.4	2.29
MOLM-13 [21]	90.7	94.9	81.9	97.2	50.8
MV4-11 [22]	94.5	90.6	111	65	0.624
NOMO-1 [23]	93.6	96.3	86.1	80.8	85.5
SHI-1 [24]	95.7	99.5	103	86.1	69
THP-1 [25]	92.7	100	91.9	86.3	51

CCCCCOC(=O)Nc1nc(=O)n([C@@H]2O[C@H](C)[C@@H](O)[C@H]2O)cc1F [Capecitabine]
Settings	IC50 (cell viability) [µM]
BV-173	> 10
HEL [1]	> 10
HL-60 [2]	> 10
K-562 [3]	> 10
KCL-22 [4]	> 10
KG-1 [5]	> 10
KU-812 [6]	> 10
LAMA-84	> 10
ML-2 [7]	> 10
MOLM-13 [8]	> 10
MV4-11 [9]	> 10
Mono-Mac-6	> 10
NOMO-1 [10]	> 10
SHI-1 [11]	> 10
THP-1 [12]	> 10

cell viability [%], HL-60 [13]
Settings	0.001 µM	0.01 µM	0.1 µM	1 µM	10 µM
co-treatment: AZD3965 100 nM	103	95.72	109	102	96.6
co-treatment: DMSO vehicle	98.8	100.39	106	99.7	98.7
co-treatment: GSK2194069 100 nM	103	95.88	99.36	102	95.6
co-treatment: pictilisib 100 nM	104	96.7	95.4	108	113

cell viability [%]
Settings	1 nM	10 nM	100 nM	1000 nM	10000 nM
HEL [14]	86.1	87	106	106	87.6
HL-60 [15]	104	85.2	109	101	72
K-562 [16]	97.4	92.5	82.9	99.9	93.3
KCL-22 [17]	118	85.4	66.3	109	85.2
KG-1 [18]	98.1	91.1	103	97.5	86.8
KU-812 [19]	90.7	93.3	104	102	89.9
ML-2 [20]	107	95.5	86.1	94.1	98.3
MOLM-13 [21]	87.7	104	121	113	70.8
MV4-11 [22]	98.2	90.8	110	103	89.7
NOMO-1 [23]	99.5	100	94.9	93	99.9
SHI-1 [24]	102	99.1	97.1	107	96.7
THP-1 [25]	102	100	94.1	105	94.6
